This note sets out measurements from US12180193B2, “Accelerating fibrosarcoma protein degrading compounds and associated methods of use” (Arvinas Operations, Inc., priority 2020, dated 2024).

Bounds are passed on as bounds.

Experiment [1] addresses T1, BRAF V600E (Homo sapiens, UniProt P15056, V600E).
T1 construct: expressed in transfected cells
In words: Cellular assay of target protein degradation, T-Rex 293 cells stably transfected with HA-BRAF_V600E (HA immunofluorescence, high content imaging). To be noted: T-Rex 293 HA-BRAF V600E; for DC50: half maximal degradation, read-out: BRaf V600E DC50; for Dmax: maximum degradation observed. The class given is cell-based. Here is the method: Protocol for a cellular assay of target protein degradation (T-Rex 293 cells). T-Rex 293 cells were purchased from Invitrogen (#R71007), and stably transfected with a pcDNA4/TO_HA-BRAF_V600E construct, using 400 ug Zeocin for selection. V600e cells are plated in Dulbecco's Modified Eagle Medium (DMEM; Gibco #11965118) containing 10% fetal bovine serum (FBS; Gibco #16000044) and 1 ng/mL doxycycline (Selleckchem #4163) at a density of 5,000 cells/well in 50 μl on poly-D-lysine (PDL) coated, black clear bottom 96-well plates (Corning #354640) and incubated for 24 hours at 37° C. with 5% C02. The following day 50 ul of tested compound was added at 2x concentration in DMEM with a final concentration ranging from 1 μM to 0.1 nM in 0.1% dimethylsulfoxide (DMSO), and incubated for 24 hours at 37° C. with 5% CO2. At the end of the experimental treatment, the media was flicked off and cells washed once with phosphate-buffered saline (PBS)++ (PBS with CaCl and MgCl) and gently replacing with 200 μl PBS++ per well. The PBS++ was removed and 50 uL 4% paraformaldehyde (PFA; EMS #15710) in PBS++ was added, and incubate at room temperature for 15 minutes. Cells were washed once with PBS++ and 50 uL 0.1% Triton X-100 (Fisher #BP151-500) in PBS++ was added. Plate was incubate for 5 minutes at room temperature. Cells were was once with PBS++. Cells were blocked with 100 uL Licor blocking buffer (Licor #927-50000) for 1 hour at room temperature. Next, 50 uL of HA antibody (CST #3724) at 1:1000 in Licor blocking buffer was added, and the plate incubate overnight at 4° C. The plates were parafilmed to prevent evaporation. Plate was washed three times with 200 uL PBS++. Fifty microliters of HCS secondary antibody solution [1:1000 Hoechst (Invitrogen #H3570), 1:1000 phalloidin (Invitrogen #A22287) and 1:5000 Alexa fluor (Invitrogen #A11008)] was added and incubated for 1 hour. Plate was wash three times with 200 uL PBS++, and imaged on a high content reader (ImageXpress Micro XLS, Molecular Devices).
(§1) The concentration of exemplary compound that leads to half maximal degradation (DC50) as well as the maximum degradation observed (Dmax, conventionally expressed as a percentage of control), which are below in Table 2 for the exemplary compounds of Table 1.

Experiment [2] concerns the target T2, BRAF G466V (Homo sapiens, UniProt P15056, G466V).
T2 construct: expressed in transfected cells
Nature of the experiment: Cellular assay of target protein degradation, T-Rex 293 cells stably transfected with HA-BRAF G466V (HA immunofluorescence, high content imaging). The class given is cell-based. The note with it: T-Rex 293 HA-BRAF G466V; for DC50: half maximal degradation, read-out: BRaf G466V DC50; for Dmax: maximum degradation observed. How it is done:
Protocol for a cellular assay of target protein degradation (T-Rex 293 cells). T-Rex 293 cells were purchased from Invitrogen (#R71007), and stably transfected with a pcDNA4/TO_HA-BRAF G466V construct, using 400 ug Zeocin for selection. G466V cells are plated in Dulbecco's Modified Eagle Medium (DMEM; Gibco #11965118) containing 10% fetal bovine serum (FBS; Gibco #16000044) and 0.75 ng/mL doxycycline (Selleckchem #4163) at a density of 5,000 cells/well in 50 μl on poly-D-lysine (PDL) coated, black clear bottom 96-well plates (Corning #354640) and incubated for 24 hours at 37° C. with 5% CO2. The following day 50 ul of tested compound was added at 2x concentration in DMEM with a final concentration ranging from 30 nM to 3 pM in 0.1% dimethylsulfoxide (DMSO), and incubated for 24 hours at 37° C. with 5% CO2. At the end of the experimental treatment, the media was flicked off and cells washed once with phosphate-buffered saline (PBS)++ (PBS with CaCl and MgCl) and gently replacing with 200 μl PBS++ per well. The PBS++ was removed and 50 uL 4% paraformaldehyde (PFA; EMS #15710) in PBS++ was added, and incubate at room temperature for 15 minutes. Cells were washed once with PBS++ and 50 uL 0.1% Triton X-100 (Fisher #BP151-500) in PBS++ was added. Plate was incubate for 5 minutes at room temperature. Cells were was once with PBS++. Cells were blocked with 100 uL Licor blocking buffer (Licor #927-50000) for 1 hour at room temperature. Next, 50 uL of HA antibody (CST #3724) at 1:1000 in Licor blocking buffer was added, and the plate incubate overnight at 4° C. The plates were parafilmed to prevent evaporation. Plate was washed three times with 200 uL PBS++. Fifty microliters of HCS secondary antibody solution [1:1000 Hoechst (Invitrogen #H3570), 1:1000 phalloidin (Invitrogen #A22287) and 1:5000 Alexa fluor (Invitrogen #A11008)] was added and incubated for 1 hour. Plate was wash three times with 200 uL PBS++, and imaged on a high content reader (ImageXpress Micro XLS, Molecular Devices).
as §1

T1 sequence (P15056 whole entry V600E): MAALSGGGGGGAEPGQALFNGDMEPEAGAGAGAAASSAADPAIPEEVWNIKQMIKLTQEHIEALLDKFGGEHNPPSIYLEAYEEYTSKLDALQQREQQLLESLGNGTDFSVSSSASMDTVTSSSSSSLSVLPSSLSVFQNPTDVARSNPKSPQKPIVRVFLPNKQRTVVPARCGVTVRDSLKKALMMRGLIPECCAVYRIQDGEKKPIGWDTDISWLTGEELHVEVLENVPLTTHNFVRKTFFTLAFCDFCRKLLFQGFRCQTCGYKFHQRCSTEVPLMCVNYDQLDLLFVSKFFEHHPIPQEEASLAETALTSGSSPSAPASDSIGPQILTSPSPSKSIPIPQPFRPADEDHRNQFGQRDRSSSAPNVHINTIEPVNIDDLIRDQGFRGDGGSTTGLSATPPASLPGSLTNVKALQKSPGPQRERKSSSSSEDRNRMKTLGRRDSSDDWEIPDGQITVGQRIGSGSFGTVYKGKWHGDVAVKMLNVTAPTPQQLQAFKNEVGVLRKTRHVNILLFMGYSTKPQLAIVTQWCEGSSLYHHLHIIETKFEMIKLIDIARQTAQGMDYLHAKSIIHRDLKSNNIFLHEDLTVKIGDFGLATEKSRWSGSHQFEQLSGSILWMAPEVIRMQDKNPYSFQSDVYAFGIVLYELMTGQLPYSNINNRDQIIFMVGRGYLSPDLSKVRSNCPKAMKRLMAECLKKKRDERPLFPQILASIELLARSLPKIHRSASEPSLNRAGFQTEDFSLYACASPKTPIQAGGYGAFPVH
T2 sequence (P15056 whole entry G466V): as the sequence (P15056 whole entry V600E) above, with G466V, E600V counted along it

`O=C1CCC(N2Cc3cc(N4CCC(CN5CCN(c6ncc(-c7cnc8[nH]cc(C(=O)c9c(F)ccc(NS(=O)(=O)N%10CC[C@@H](F)C%10)c9F)c8c7)cn6)CC5)CC4)ccc3C2=O)C(=O)N1` (stereo partly drawn) [Compound 18, (3R)-N-[3-(5-{2-[4-({1-[2-(2,6-dioxopiperidin-3-yl)-1-oxo-2,3-dihydro-1H-isoindol-5-yl]piperidin-4-yl}methyl)piperazin-1-yl]pyrimidin-5-yl}-1H-pyrrolo[2,3-b]pyridine-3-carbonyl)-2,4-difluorophenyl]-3-fluoropyrrolidine-1-sulfonamide]: in experiment [1], the DC50 was in the range of 50 to 500 nM and the Dmax was more than 70%. Also, in experiment [2], the 50% degradation concentration (DC50) is less than 1 nM and the Dmax was 35 to 70%.
Regarding `O=C1CCC(N2Cc3cc(N4CCC(F)(CN5CC6(C5)CN(c5ccc(-c7cnc8[nH]cc(C(=O)c9c(F)ccc(NS(=O)(=O)N%10CC[C@@H](F)C%10)c9F)c8c7)cc5)C6)CC4)ccc3C2=O)C(=O)N1` (stereo partly drawn) [Compound 19, (3R)-N-[3-(5-{4-[6-({1-[2-(2,6-dioxopiperidin-3-yl)-1-oxo-2,3-dihydro-1H-isoindol-5-yl]-4-fluoropiperidin-4-yl}methyl)-2,6-diazaspiro[3.3]heptan-2-yl]phenyl}-1H-pyrrolo[2,3-b]pyridine-3-carbonyl)-2,4-difluorophenyl]-3-fluoropyrrolidine-1-sulfonamide], in experiment [1], the DC50 was 5 to 50 nM and the Dmax lay within 35 to 70%. For the same compound, in experiment [2], the half-maximal degradation concentration (DC50) lay in the range of 1 to 10 nM and the Dmax is 35 to 70%.
For the compound `COc1cc(N2CC3(C2)CN(CC2CCN(c4ccc(-c5cnc6[nH]cc(C(=O)c7c(F)ccc(NS(=O)(=O)N8CC[C@@H](F)C8)c7F)c6c5)cc4)CC2)[C@@H]3C)cc2c1C(=O)N(C1CCC(=O)NC1=O)C2` (stereo partly drawn) [Compound 20, (3R)-N-(3-{5-[4-(4-{[(1R)-6-[2-(2,6-dioxopiperidin-3-yl)-7-methoxy-1-oxo-2,3-dihydro-1H-isoindol-5-yl]-1-methyl-2,6-diazaspiro[3.3]heptan-2-yl]methyl}piperidin-1-yl)phenyl]-1H-pyrrolo[2,3-b]pyridine-3-carbonyl}-2,4-difluorophenyl)-3-fluoropyrrolidine-1-sulfonamide], in experiment [1], the DC50 fell in the range of 5 to 50 nM and the greatest degradation seen (Dmax) was in the range of 35 to 70%. In experiment [2], the DC50 was less than 1 nM and the maximal degradation (Dmax) was 35 to 70%.
As to `COc1cc(N2CC3(CN(CCc4ccc(-c5cnc6[nH]cc(C(=O)c7c(F)ccc(NS(=O)(=O)N8CC[C@@H](F)C8)c7F)c6c5)cc4)C3)C2)cc2c1C(=O)N(C1CCC(=O)NC1=O)C2` (stereo partly drawn) [Compound 21, (3R)-N-(3-{5-[4-(2-{6-[2-(2,6-dioxopiperidin-3-yl)-7-methoxy-1-oxo-2,3-dihydro-1H-isoindol-5-yl]-2,6-diazaspiro[3.3]heptan-2-yl}ethyl)phenyl]-1H-pyrrolo[2,3-b]pyridine-3-carbonyl}-2,4-difluorophenyl)-3-fluoropyrrolidine-1-sulfonamide], in experiment [1], the 50% degradation concentration (DC50) is 5 to 50 nM and the Dmax was in the range of 35 to 70%. In experiment [2], the DC50 was 1 to 10 nM and the Dmax fell in the range of 35 to 70%.
As for `COc1cc(CCCN2CC3(C2)CN(c2ccc(-c4cnc5[nH]cc(C(=O)c6c(F)ccc(NS(=O)(=O)N7CC[C@@H](F)C7)c6F)c5c4)cc2)C3)cc2c1C(=O)N(C1CCC(=O)NC1=O)C2` (stereo partly drawn) [Compound 22, (3R)-N-(3-{5-[4-(6-{3-[2-(2,6-dioxopiperidin-3-yl)-7-methoxy-1-oxo-2,3-dihydro-1H-isoindol-5-yl]propyl}-2,6-diazaspiro[3.3]heptan-2-yl)phenyl]-1H-pyrrolo[2,3-b]pyridine-3-carbonyl}-2,4-difluorophenyl)-3-fluoropyrrolidine-1-sulfonamide], in experiment [1], the DC50 is 5 to 50 nM and the greatest degradation seen (Dmax) fell in the range of 35 to 70%. In experiment [2], the DC50 is less than 1 nM and the Dmax fell in the range of 35 to 70%.
As to `O=C1CCC(N2Cc3cc(N4CC[C@H]4COc4ccc(-c5cnc6[nH]cc(C(=O)c7c(F)ccc(NS(=O)(=O)N8CC[C@@H](F)C8)c7F)c6c5)cc4)ccc3C2=O)C(=O)N1` (stereo partly drawn) [Compound 23, (3R)-N-{3-[5-(4-{[(2S)-1-[2-(2,6-dioxopiperidin-3-yl)-1-oxo-2,3-dihydro-1H-isoindol-5-yl]azetidin-2-yl]methoxy}phenyl)-1H-pyrrolo[2,3-b]pyridine-3-carbonyl]-2,4-difluorophenyl}-3-fluoropyrrolidine-1-sulfonamide], the half-maximal degradation concentration (DC50) in experiment [1] is more than 500 nM; in experiment [2], more than 30 nM.
With `O=C1CCC(N2Cc3cc(N4CCC(CN5CCN(c6ccc(-c7cnc8[nH]cc(C(=O)c9c(F)ccc(NS(=O)(=O)N%10CC[C@@H](F)C%10)c9F)c8c7)cn6)CC5)CC4)ccc3C2=O)C(=O)N1` (stereo partly drawn) [Compound 25, (3R)-N-[3-(5-{6-[4-({1-[2-(2,6-dioxopiperidin-3-yl)-1-oxo-2,3-dihydro-1H-isoindol-5-yl]piperidin-4-yl}methyl)piperazin-1-yl]pyridin-3-yl}-1H-pyrrolo[2,3-b]pyridine-3-carbonyl)-2,4-difluorophenyl]-3-fluoropyrrolidine-1-sulfonamide], the figures for the DC50 in experiment [1] and in experiment [2] were 5 to 50 nM and less than 1 nM, respectively. Besides, the Dmax in experiment [1] was 35 to 70%; in experiment [2] it was more than 70%.
Take `O=C1CCC(N2Cc3cc(N4CC5(CN(c6ccc(-c7cnc8[nH]cc(C(=O)c9c(F)ccc(NS(=O)(=O)N%10CC[C@@H](F)C%10)c9F)c8c7)cc6)C5)C4)ccc3C2=O)C(=O)N1` (stereo partly drawn) [Compound 26, (3R)-N-{3-[5-(4-{6-[2-(2,6-dioxopiperidin-3-yl)-1-oxo-2,3-dihydro-1H-isoindol-5-yl]-2,6-diazaspiro[3.3]heptan-2-yl}phenyl)-1H-pyrrolo[2,3-b]pyridine-3-carbonyl]-2,4-difluorophenyl}-3-fluoropyrrolidine-1-sulfonamide]: in experiment [1], the half-maximal degradation concentration (DC50) is more than 500 nM and the maximal degradation (Dmax) was more than 70%. Also, in experiment [2], the DC50 is less than 1 nM and the maximal degradation (Dmax) is 35 to 70%.
Consider `O=C1CC[C@H](NC(=O)c2ccc(N3CCN(CCc4ccc(-c5cnc6[nH]cc(C(=O)c7c(F)ccc(NS(=O)(=O)N8CC[C@@H](F)C8)c7F)c6c5)cc4)CC3)cc2F)C(=O)N1` [Compound 27, 4-[4-[2-[4-[3-[2,6-difluoro-3-[[(3R)-3-fluoropyrrolidin-1-yl]sulfonylamino]benzoyl]-1H-pyrrolo[2,3-b]pyridin-5-yl]phenyl]ethyl]piperazin-1-yl]-N-[(3S)-2,6-dioxo-3-piperidyl]-2-fluoro-benzamide], for which, in experiment [1], the half-maximal degradation concentration (DC50) lay in the range of 5 to 50 nM and the greatest degradation seen (Dmax) was more than 70%. For the same compound, in experiment [2], the half-maximal degradation concentration (DC50) lay in the range of 1 to 10 nM and the maximal degradation (Dmax) is 35 to 70%.

The term DC50 denotes the midpoint of the concentration-degradation curve. The term Dmax denotes the largest share of the target that was removed. Read a low Dmax as shallow degradation.
